Test results: paper PMC4117768, “Conjugation with polyamines enhances the antibacterial and anticancer activity of chloramphenicol” (Nucleic Acids Research, 2014)
Entries after “also recorded” stand apart in the source; their conditions may differ.

Assays:
[1] = test system: Jurkat (T-cell acute lymphoblastic leukemia) cells; assay: Toxicity assay in leukemic cell line (cell counting, Annexin V flow cytometry); format: cell-based, human; settings: for sensitivity of cells / inhibition of cell proliferation (cell counting): increasing concentrations
Experimental: (§1) Human leukemic cell lines, HS-Sultan (Burkitt's lymphoma) (European Collection of Cell Cultures, Salisbury, UK), Jurkat (T-cell acute lymphoblastic leukemia) and U937 (histiocytic lymphoma) (American Type Culture Collection, Manassas, USA), were adjusted to 1 × 10^9 cells/l in RPMI-1640 medium containing 1% Penicillin/Streptomycin and 10% fetal bovine serum and grown in triplicate in the presence or absence of CAM or PA–CAM conjugates for 4 days at 37°C, under a humidified 5% CO2 atmosphere. The medium was changed after 2 days of exposure; CAM or PA-CAM addition was repeated after medium change to keep the appropriate drug concentration. Aliquots were collected daily and counted in a CELL-DYN 3700 Hematology Analyzer. For cell necrosis and apoptosis assays, samples (10^6 cells) were collected daily and determined using the Annexin V-PE Apoptosis Detection Kit I (BD Pharmingen) for flow cytometry ([29]), as described by the manufacturer. Flow cytometry data were analyzed using the FlowJo flow cytometry analysis software. Necrotic and apoptotic cells were expressed as a percentage of total cells.
(§2) Figure S2. Toxicity assays in leukemic cell lines. Human leukemic cell lines, HS-Sultan, Jurkat, and U937 were adjusted to 1×10^9 cells/l in RPMI-1640 medium containing 1% Penicillin/Streptomycin and 10% fetal bovine serum and grown in triplicate in the presence or absence of CAM or compound 4 at the indicated concentrations for 5 days at 37°C, under a humidified 5% CO2 atmosphere. Aliquots were collected daily and counted in a CELL-DYN 3700 Hematology Analyzer.
Figure S4. Toxicity assays in Jurkat cells. Jurkat cells were adjusted to 1×10^9 cells/l in RPMI-1640 medium containing 1% Penicillin/Streptomycin and 10% fetal bovine serum and grown in triplicate in the presence or absence of CAM or compound 4 at the indicated concentrations for 4 days at 37°C, under a humidified 5% CO2 atmosphere. Cell necrosis and apoptosis assays were performed as described in Figure S3. Necrotic and apoptotic cells were expressed as a percentage of total cells.

[2] = test system: HS-Sultan (Burkitt's lymphoma) cells; assay: as above; format: cell-based, human; settings: for induction of apoptosis (flow cytometry) / induction of necrosis (flow cytometry): 60 μM; for sensitivity of cells / inhibition of cell proliferation (cell counting): increasing concentrations
Experimental: as §1, §2
Figure S3. Toxicity assays in HS-Sultan cells. HS-Sultan cells were adjusted to 1×10^9 cells/l in RPMI-1640 medium containing 1% Penicillin/Streptomycin and 10% fetal bovine serum and grown in triplicate in the presence or absence of CAM or compound 4 at the indicated concentrations for 4 days at 37°C, under a humidified 5% CO2 atmosphere. For cell necrosis and apoptosis assays, samples (10^6 cells) were collected daily and determined using the Annexin V-PE Apoptosis Detection Kit I for flow cytometry. Non-viable and necrotic cells were expressed as a percentage of total cells.

[3] = test system: E. coli (A2503C) TA531 cells with pKK35 plasmid, mutated 23S rRNA; assay: Growth inhibition of bacterial cell cultures, CAM-resistant mutant; format: cell-based; settings: for IC50: Escherichia coli, read-out: IC50 (inhibit the growth by half)
Excerpt: (§3) CAM free base [D-(-)threo-1-(p-nitrophenyl)-2-amino-1,3-propanediol], puromycin dihydrochloride, tRNA^Phe from E. coli, dimethyl sulfate (DMS), DMS stop solution and tRNA^Phe from E. coli were purchased from Sigma-Aldrich. Kethoxal and 1-cyclohexyl-3-(2-morpholinoethyl)-carbodiimide metho-p-toluene sulfate (CMCT) were from MP Biomedicals and Fluka Biochemicals, respectively. AMV reverse transcriptase was supplied by Roche, dNTPs by HT Biotechnology, and ddNTPs by Jena Bioscience. L-[2,3,4,5,6 -^3H]Phenylalanine was from Amersham Biosciences and [α-^32P]ATP from Izotop. Cellulose nitrate filters (type HA; 0.45 μm pore size) were from Millipore Corp. Details in experimental procedures of synthesis and physical and spectra data for the synthesized compounds will be published elsewhere. […] The mesothelioma cell line ZL34 and its immortalized counterpart cell line Met5A, were kindly provided by Prof. G. Stathopoulos (University of Patras).
(§4) S. aureus or E. coli cells (400 μl of a 0.700 OD560 preculture) containing wild-type or mutant ribosomes were added in 3.6 ml of LB (Luria Broth) medium and grown at 37°C in the presence or absence of CAM or PA–CAM conjugates until the optical density of the control culture (grown in the absence of drug) reached the value 0.700 at 560 nm. From the growth curves, the IC50 value for each strain was estimated as the concentration of the drug that is required to inhibit the growth by half.

[4] = test system: E. coli (A2058G) TA531 cells with pKK35 plasmid, mutated 23S rRNA; assay: as above; format: cell-based; settings: for IC50: Escherichia coli, read-out: IC50 (inhibit the growth by half)
Excerpt: as §3, §4

[5] = test system: human peripheral blood cells; assay: Toxicity assay in human peripheral blood cells (cell counting); format: cell-based
Experimental: Peripheral blood was collected in EDTA-coated tubes from five healthy volunteers (age range: 25–30 years). Cell concentration was adjusted to 1.8 × 10^9 cells/l using RPMI-1640 medium (GIBCO BRL) containing 1% Penicillin/Streptomycin. CAM or PA–CAM conjugates were added at various concentrations and cells were cultured in triplicate under a humidified 5% CO2 atmosphere for 5 days, at 37°C. In parallel, cells were cultured in the absence of CAM or PA–CAM conjugates (control cultures). Counting of cells was performed daily in a CELL-DYN 3700 Hematology Analyzer (Abbott, USA) and values were expressed as a percentage of cells measured in control cultures.
Figure S1. Toxicity assays in human peripheral blood cells. Peripheral blood was collected in EDTA-coated tubes from 5 healthy volunteers (age range: 25-30 years). Cell concentration was adjusted to 1.8×10^9 cells/l using RPMI-1640 medium (GIBCO BRL) containing 1% penicillin/streptomycin. CAM or compound 4 was added at final concentrations equal to 30 or 60 μM and cells were cultured in triplicate under a humidified 5% CO2 atmosphere for 5 days, at 37°C. Control cultures were carried out in the absence of CAM or compound 4. Cultures were counted daily in a CELL-DYN 3700 Hematology Analyzer and values are expressed as a percentage of cells measured in control cultures.

SMILES: O=C(N[C@H](CO)[C@H](O)c1ccc([N+](=O)[O-])cc1)C(Cl)Cl [CAM, Chloramphenicol]
- induction of apoptosis (flow cytometry) ([1]; 60 μM): failed to induce apoptosis
- induction of necrosis (flow cytometry) ([1]; 60 μM): failed to induce necrosis/apoptosis
- sensitivity of cells / inhibition of cell proliferation (cell counting) [1]: sensitive
- induction of apoptosis (flow cytometry) [2]: failed to induce apoptosis
- induction of necrosis (flow cytometry) [2]: induced necrosis
- sensitivity of cells / inhibition of cell proliferation (cell counting) [2]: sensitive
- IC50 [3]: 24.7 ± 2.3 µM
- IC50 [4]: 15.5 ± 1.3 µM
- effects on other types of leukocytes ([5]; 30 μM for 24 or 48 h): negligible
- reduction in the viability of neutrophils ([5]; 30 μM for 24 or 48 h): 20%

SMILES: NCCCN(CCCCN(Cc1ccccc1)Cc1ccccc1)C(=O)CCC(=O)N[C@H](CO)[C@H](O)c1ccc([N+](=O)[O-])cc1 [Compound 4]
- induction of necrosis (flow cytometry) ([1]; 60 μM): induced necrosis
- sensitivity of cells / inhibition of cell proliferation (cell counting) [1]: sensitive; also recorded: more effective than CAM
- induction of apoptosis (flow cytometry) [2]: apoptosis to HS-Sultan cells
- induction of necrosis (flow cytometry) [2]: induced necrosis
- sensitivity of cells / inhibition of cell proliferation (cell counting) [2]: sensitive; also recorded: more effective than CAM
- IC50 superiority over CAM ([3]; E. coli A2503C mutant): ~2 fold
- IC50 [3]: 9.4 ± 0.9 µM
- IC50 superiority over CAM ([4]; E. coli A2058G mutant): ~2 fold
- IC50 [4]: 9.4 ± 1 µM
- effects on other types of leukocytes ([5]; 30 μM for 24 or 48 h): negligible
- effect on the viability of human monocytes and lymphocytes ([5]; 120 h culture period): little or no effect
- toxicity to neutrophils ([5]; 120 h culture period): moderate and transient toxicity
